The text below walks through data of US8211929B2, “Pyrimidine derivatives as kinase modulators and method of use” (Exelixis, Inc., priority 2004, dated 2012).

As a reminder, the IC50 is the midpoint of a concentration-inhibition curve.

The target in test [1] is T1, IGF 3P (Homo sapiens, UniProt P08069).
T1 construct: human IGF1R kinase domain residues M954-C1367; made in house; host or cells: baculovirus expression (insect cells)
The test is described as follows: IGF1R kinase assay (LCCA), IGF 3P. It is filed as biochemical. As to the method: (§1) Kinase activity and compound inhibition are investigated using one or more of the three assay formats described below. The ATP concentrations for each assay are selected to be close to the Michaelis-Menten constant (KM) for each individual kinase. Dose-response experiments are performed at 10 different inhibitor concentrations in a 384-well plate format. […] Y=Min+(Max−Min)/(1+(X/IC50)^H) Equation (2)
(§2) IGF1R kinase biochemical activity was assessed using a Luciferase-Coupled Chemiluminescent Kinase assay (LCCA) format. Kinase activity was measured as the percent ATP remaining following the kinase reaction. Remaining ATP was detected by luciferase-luciferin-coupled chemiluminescence. Specifically, the reaction was initiated by mixing test compounds, 3 μM ATP, 4 μM poly EY peptide and 4 nM IGF1R (baculovirus expressed human IGF1R kinase domain residues M954-C1367) in a 20 uL assay buffer (20 mM Tris-HCL pH7.5, 10 mM MgCl2, 0.02% Triton X-100, 1 mM DTT, 2 mM MnCl2). The mixture is incubated at ambient temperature for 2 hours after which 20 uL luciferase-luciferin mix is added and the chemiluminescent signal read using a Wallac Victor^2 reader.

Test [2] addresses T2, (Homo sapiens, UniProt P08069).
T2 construct: human IGF1R kinase domain residues M954-C1367; made in house; host or cells: baculovirus expression (insect cells)
The test can be described thus: IGF1R kinase assay (LCCA), IGF 0P. In kind it is biochemical. As to the method:
as §1, §2

Like-named read-outs stand apart in the source and are kept apart here.

T2 sequence (P08069 954-1367): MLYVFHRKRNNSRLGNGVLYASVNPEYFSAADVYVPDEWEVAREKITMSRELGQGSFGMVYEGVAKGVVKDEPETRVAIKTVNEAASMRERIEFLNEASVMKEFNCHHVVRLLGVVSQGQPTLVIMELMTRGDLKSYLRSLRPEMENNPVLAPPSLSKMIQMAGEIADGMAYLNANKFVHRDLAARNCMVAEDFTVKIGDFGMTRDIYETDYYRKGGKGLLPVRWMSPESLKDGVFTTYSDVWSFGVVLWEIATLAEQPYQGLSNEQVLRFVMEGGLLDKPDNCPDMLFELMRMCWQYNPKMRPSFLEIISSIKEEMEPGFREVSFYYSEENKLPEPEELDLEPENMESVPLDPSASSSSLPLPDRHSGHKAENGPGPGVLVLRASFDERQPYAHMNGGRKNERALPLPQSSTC
T1 sequence (P08069 954-1367): as above

As to `CC(C)(C)OC(=O)N1CC[C@H](NC(=O)c2cccc(Nc3ncc(Br)c(Nc4cc(C5CC5)n[nH]4)n3)c2)C1` [Example 141], the IC50 in test [1] (IGF1R kinase LCCA assay) was 0.05 to 0.5 µM; in test [2] (IGF1R kinase LCCA assay), 0.5 to 5 µM.

Consider `CC(C)c1cc(CNc2ncc(Br)c(Nc3cc(C4CC4)[nH]n3)n2)on1` [Example 65], for which the IC50 in test [1] (IGF1R kinase LCCA assay) was below 0.05 µM; in test [2] (IGF1R kinase LCCA assay), 0.5 to 5 µM.

With `Cc1cc(Nc2cc(C3CC3)n[nH]2)nc(Nc2cc(Cl)cc(Cl)c2)n1` [Example 274], the half-maximal inhibitory concentration (IC50) in test [1] (IGF1R kinase LCCA assay) was above 5 µM; in test [2] (IGF1R kinase LCCA assay) it was 0.5 to 5 µM.

With `O=C(NCc1ccccc1)c1nc(Nc2ccccc2Cl)nc(Nc2cc(C3CC3)n[nH]2)c1[N+](=O)[O-]` [Example 239], the IC50 in test [1] (IGF1R kinase LCCA assay) and in test [2] (IGF1R kinase LCCA assay) was 0.5 to 5 µM each time.

For the molecule `Cc1cc(Nc2cc(-c3ccco3)[nH]n2)nc(NCc2cc(-c3ccccc3)no2)n1` [Example 246], the half-inhibitory concentration (IC50) in test [1] (IGF1R kinase LCCA assay) and in test [2] (IGF1R kinase LCCA assay) was 0.5 to 5 µM in each case.

For the molecule `CN1CCN(c2cc(Nc3cc(C4CC4)n[nH]3)nc(NCc3cc(-c4ccc(F)cc4)no3)n2)CC1` [Example 605, N^4-(3-cyclopropyl-1H-pyrazol-5-yl)-N^2-{[3-(4-fluorophenyl)isoxazol-5-yl]methyl}-6-(4-methylpiperazin-1-yl)pyrimidine-2,4-diamine], the results for the IC50 in test [1] and in test [2] were below 0.05 µM and 0.05 to 0.5 µM, respectively.

`Cc1cc(Nc2ccccc2)nc(Nc2ccc(N3CCOCC3)cc2)n1` [Example 567]: the IC50 in test [1] (IGF1R kinase LCCA assay) and in test [2] (IGF1R kinase LCCA assay) was 0.5 to 5 µM each time.

For `CCN(CC)CCNC(=O)CCc1ccc(Nc2ncc(Br)c(Nc3ccccc3)n2)cc1` [Example 541], the values for the IC50 in test [1] (IGF1R kinase LCCA assay) and in test [2] (IGF1R kinase LCCA assay) were below 0.05 µM and 0.05 to 0.5 µM, respectively.

Consider `Cc1cc(Nc2ccc3ccccc3c2)nc(NCc2cc(-c3ccccc3)no2)n1` [Example 299], for which the IC50 in test [1] (IGF1R kinase LCCA assay) and in test [2] (IGF1R kinase LCCA assay) was above 5 µM in each case.

`CC(=O)Nc1ccc(Cl)c(Nc2ncc(Br)c(Nc3cc(C)on3)n2)c1` [Example 57]: the 50% inhibitory concentration (IC50) in test [1] (IGF1R kinase LCCA assay) was below 0.05 µM; in test [2] (IGF1R kinase LCCA assay) it was 0.5 to 5 µM.

With `COc1ccc(CNc2ncc(Br)c(Nc3cc(C4CC4)n[nH]3)n2)cc1OC` [Example 247], the half-maximal inhibitory concentration (IC50) in test [1] (IGF1R kinase LCCA assay) is 0.5 to 5 µM; in test [2] (IGF1R kinase LCCA assay) it was above 5 µM.

For `Cc1cc(Nc2cc(C3CC3)[nH]n2)nc(NCc2cc(-c3cccc(Br)c3)no2)n1` [Example 542], the IC50 in test [1] (IGF1R kinase LCCA assay) and in test [2] (IGF1R kinase LCCA assay) was 0.05 to 0.5 µM in each case.

Regarding `Cc1cc(Nc2cc(C3CC3)[nH]n2)nc(NCc2cc(-c3cccnc3)no2)n1` [Example 610, N^4-(5-cyclopropyl-1H-pyrazol-3-yl)-6-methyl-N^2-[(3-pyridin-3-ylisoxazol-5-yl)methyl]pyrimidine-2,4-diamine], the IC50 in test [1] is below 0.05 µM; in test [2], 0.05 to 0.5 µM.

As for `COc1ccccc1CNc1nc(C)cc(Nc2cc(C3CC3)[nH]n2)n1` [Example 207], the half-maximal inhibitory concentration (IC50) in test [1] (IGF1R kinase LCCA assay) and in test [2] (IGF1R kinase LCCA assay) was 0.5 to 5 µM each time.

Take `CN(C)c1cc(Nc2cc(C3CC3)[nH]n2)nc(NCc2cc(-c3ccccc3)no2)n1` [Example 110]: the concentration for half-maximal inhibition (IC50) in test [1] (IGF1R kinase LCCA assay) and in test [2] (IGF1R kinase LCCA assay) was 0.05 to 0.5 µM throughout.

Consider `Cc1cc(Nc2cc(C3CC3)[nH]n2)nc(NC(c2ccccc2)c2nc(-c3ccccc3)co2)n1` (centres unmarked) [Example 572], for which the IC50 in test [1] (IGF1R kinase LCCA assay) and in test [2] (IGF1R kinase LCCA assay) was 0.5 to 5 µM each time.

For `Cc1cc(Nc2ccc3ccccc3c2)nc(Nc2ccc(N3CCOCC3)cc2)n1` [Example 297], the 50% inhibitory concentration (IC50) in test [1] (IGF1R kinase LCCA assay) and in test [2] (IGF1R kinase LCCA assay) was above 5 µM in each case.

Turning to `Nc1ncnc2c1c(-c1ccc(NC(=O)C3(C(=O)Nc4ccc(F)cc4)CC3)cc1)cn2CC1CC2CN(C(=O)OCc3ccccc3)CC2C1` (centres unmarked) [Example 357], the 50% inhibitory concentration (IC50) in test [1] (IGF1R kinase LCCA assay) and in test [2] (IGF1R kinase LCCA assay) was above 5 µM in each case.

For `Cc1cc(Nc2cc(C3CC3)[nH]n2)nc(NCc2cc(C3CCCCC3)no2)n1` [Example 82], the 50% inhibitory concentration (IC50) in test [1] (IGF1R kinase LCCA assay) and in test [2] (IGF1R kinase LCCA assay) was 0.05 to 0.5 µM throughout.

In the case of `Cc1cc(Nc2cc(C)nc(NCc3cc(-c4ccccc4)no3)n2)[nH]n1` [Example 528], the IC50 in test [1] (IGF1R kinase LCCA assay) and in test [2] (IGF1R kinase LCCA assay) was 0.05 to 0.5 µM throughout.

Take `c1ccc(-c2cc(CNc3nc4c(c(Nc5cc(C6CC6)[nH]n5)n3)CCNC4)on2)cc1` [Example 283]: the IC50 in test [1] (IGF1R kinase LCCA assay) and in test [2] (IGF1R kinase LCCA assay) was above 5 µM throughout.

`FC(F)(F)c1cc(Nc2ncc(Br)c(Nc3cc(C4CC4)n[nH]3)n2)cc(C(F)(F)F)c1` [Example 304]: the IC50 in test [1] (IGF1R kinase LCCA assay) and in test [2] (IGF1R kinase LCCA assay) was above 5 µM in each case.
